Calls of active or inactive are those of the source.
Experiments:
[1] = target: T1, Beta-2 adrenergic receptor (Homo sapiens, UniProt P07550); test: Dose response for HTS for Beta-2AR agonists via FAP method from Powderset1.; assay type: functional
[2] = target: T1, Beta-2 adrenergic receptor; test: beta2AR agonists driving receptor internalization, dose response, cell-based, FAP fluorogen, flow cytometry, cherry pick 1 (AID 588763); assay type: functional
[3] = inhibitors of firefly luciferase expression or activity, dose response, H4 neuroglioma cells, luminescence (AID 1990); assay type: functional, cell-based
[4] = Luminescence Cell-Based Dose Response HTS to Identify Inhibitors of 5'UTR Stem-Loop Driven Prion Protein mRNA Translation in H4 Neuroglioblastoma Cells. [Related pubchem assays: 1827 (Project Summary), 1813 (Primary HTS)]; assay type: functional
[5] = inhibitors of SNCA 5'UTR-driven reporter translation, confirmation, H4 neuroglioma cells, luminescence (AID 1988); assay type: functional, cell-based
[6] = inhibitors of intracellular T. cruzi replication, confirmation, NIH3T3 host cells, beta-gal luminescence (AID 2044); assay type: functional, cell-based;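 also: intracellular parasites grown in NIH/3T3 mouse fibroblasts as host cells; luminescent beta-galactosidase reporter signal from transgenic T. cruzi replicating inside host cells; inhibitors lower the luminescence signal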
[7] = cytotoxicity toward NIH3T3 fibroblasts, dose response, counter-screen, cell-based, ATP luminescence, mouse fibroblasts (AID 2010); assay type: functional;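 also: cells exposed to compound for about 90 hours before reading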
[8] = target: DNA topoisomerase (Yersinia pestis, UniProt A0A2S9PM60); test: Y. pestis Topo-I inhibitors, cleavage product readout, dose response, biochemical, cherry-pick (AID 588525)
DNA topoisomerase, sequence (A0A2S9PM60 whole entry): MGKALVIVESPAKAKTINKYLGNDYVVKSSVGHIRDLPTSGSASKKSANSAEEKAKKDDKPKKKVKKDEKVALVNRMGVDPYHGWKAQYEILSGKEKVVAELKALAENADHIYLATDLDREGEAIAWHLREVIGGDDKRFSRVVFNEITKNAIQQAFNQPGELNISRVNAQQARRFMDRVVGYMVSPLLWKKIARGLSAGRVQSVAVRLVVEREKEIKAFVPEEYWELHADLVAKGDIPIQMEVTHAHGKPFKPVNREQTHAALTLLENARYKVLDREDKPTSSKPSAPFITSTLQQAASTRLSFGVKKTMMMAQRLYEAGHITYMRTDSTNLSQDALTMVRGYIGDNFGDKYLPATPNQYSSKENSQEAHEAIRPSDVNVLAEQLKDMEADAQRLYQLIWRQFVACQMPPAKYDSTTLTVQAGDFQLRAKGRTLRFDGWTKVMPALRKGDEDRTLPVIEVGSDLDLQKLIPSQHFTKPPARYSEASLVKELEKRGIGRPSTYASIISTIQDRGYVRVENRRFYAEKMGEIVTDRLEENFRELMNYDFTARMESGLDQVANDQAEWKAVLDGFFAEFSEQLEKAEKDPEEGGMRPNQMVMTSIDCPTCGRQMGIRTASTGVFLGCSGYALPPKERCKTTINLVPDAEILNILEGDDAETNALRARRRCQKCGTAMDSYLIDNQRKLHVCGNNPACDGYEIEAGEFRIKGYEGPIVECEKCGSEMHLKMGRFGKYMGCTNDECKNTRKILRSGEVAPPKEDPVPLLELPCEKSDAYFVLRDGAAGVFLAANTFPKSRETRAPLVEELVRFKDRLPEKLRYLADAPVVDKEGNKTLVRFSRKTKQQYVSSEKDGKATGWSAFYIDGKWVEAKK

[9] = target: Dual specificity protein kinase CLK1 (Homo sapiens, UniProt P49759); test: CLK1 kinase inhibitors, off-target check, dose response, selectivity assay for Dyrk1A inhibitor project, biochemical, cherry-picked samples (AID 588811)
Dual specificity protein kinase CLK1, sequence (P49759 whole entry): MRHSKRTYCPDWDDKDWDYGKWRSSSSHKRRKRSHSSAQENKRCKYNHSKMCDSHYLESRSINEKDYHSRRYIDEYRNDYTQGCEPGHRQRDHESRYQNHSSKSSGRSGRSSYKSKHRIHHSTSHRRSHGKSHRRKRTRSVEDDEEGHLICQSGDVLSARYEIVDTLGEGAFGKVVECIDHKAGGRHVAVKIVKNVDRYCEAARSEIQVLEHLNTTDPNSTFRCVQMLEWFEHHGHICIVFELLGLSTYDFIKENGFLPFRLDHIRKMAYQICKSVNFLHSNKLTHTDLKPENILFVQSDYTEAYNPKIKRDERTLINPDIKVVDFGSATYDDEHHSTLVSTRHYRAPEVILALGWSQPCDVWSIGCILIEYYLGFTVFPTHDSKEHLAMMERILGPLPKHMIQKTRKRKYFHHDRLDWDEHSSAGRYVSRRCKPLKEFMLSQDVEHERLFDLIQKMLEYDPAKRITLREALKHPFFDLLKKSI

[10] = Late-stage assay provider results from the probe development effort to identify agonists of the Sphingosine 1-Phosphate Receptor 4 (S1P4): luminescence-based cell-based dose response assay to determine cytotoxicity of agonist compounds. [Related pubchem assays (depositor defined):AID1509, AID1523, AID1563, AID1686, AID1701, AID1801, AID463107, AID463225, AID504400]; assay type: functional
[11] = target: Sphingosine 1-phosphate receptor 5 (Homo sapiens, UniProt Q9H228); test: (§1) Late-stage fluorescence-based dose-response cell-based assay to identify agonists of the Sphingosine 1-Phosphate Receptor 4 (S1P4): Sphingosine 1-Phosphate Receptor 5 (S1P5) counterscreen assay. [Related pubchem assays (depositor defined):AID1509, AID1523, AID1563, AID1686, AID1701, AID1801, AID463107, AID463225, AID504400]; assay type: functional
[12] = target: Sphingosine 1-phosphate receptor 1 (Homo sapiens, UniProt P21453); test: as §1, with “1 (S1P1)” for “5 (S1P5)”; assay type: functional
Sphingosine 1-phosphate receptor 1, sequence (P21453 whole entry): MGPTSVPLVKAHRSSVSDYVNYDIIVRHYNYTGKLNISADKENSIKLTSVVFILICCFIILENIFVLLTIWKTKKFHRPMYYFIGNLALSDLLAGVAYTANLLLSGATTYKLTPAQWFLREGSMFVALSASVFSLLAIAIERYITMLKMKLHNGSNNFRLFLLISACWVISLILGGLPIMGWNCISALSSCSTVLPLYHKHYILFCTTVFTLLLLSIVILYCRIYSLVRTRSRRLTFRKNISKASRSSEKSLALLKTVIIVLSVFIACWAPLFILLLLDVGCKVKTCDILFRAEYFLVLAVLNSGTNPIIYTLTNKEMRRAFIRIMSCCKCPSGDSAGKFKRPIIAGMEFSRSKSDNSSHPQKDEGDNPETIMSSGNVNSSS

[13] = target: Sphingosine 1-phosphate receptor 2 (Homo sapiens, UniProt O95136); test: as §1, with “2 (S1P2)” for “5 (S1P5)”; assay type: functional
Sphingosine 1-phosphate receptor 2, sequence (O95136 whole entry): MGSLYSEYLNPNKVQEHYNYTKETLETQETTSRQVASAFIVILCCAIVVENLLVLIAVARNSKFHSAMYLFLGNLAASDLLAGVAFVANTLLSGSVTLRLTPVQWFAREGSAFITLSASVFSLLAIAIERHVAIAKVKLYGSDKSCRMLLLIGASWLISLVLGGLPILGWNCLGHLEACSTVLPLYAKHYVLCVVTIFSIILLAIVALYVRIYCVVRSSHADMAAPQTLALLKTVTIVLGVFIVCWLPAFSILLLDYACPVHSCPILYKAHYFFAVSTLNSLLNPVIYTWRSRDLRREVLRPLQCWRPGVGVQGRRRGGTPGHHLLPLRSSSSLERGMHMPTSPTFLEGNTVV

[14] = target: Sphingosine 1-phosphate receptor 4 (Homo sapiens, UniProt O95977); test: Late-stage fluorescence dose response cell-based counterscreening assay for agonists of the Sphingosine 1-Phosphate Receptor 4 (S1P4): inhibition by S1P4-selective antagonist. [Related pubchem assays (depositor defined):AID1509, AID1523, AID1563, AID1686, AID1701, AID1801, AID463107, AID463118, AID463119, AID463122, AID463123, AID463129, AID504400]; assay type: functional
Sphingosine 1-phosphate receptor 4, sequence (O95977 whole entry): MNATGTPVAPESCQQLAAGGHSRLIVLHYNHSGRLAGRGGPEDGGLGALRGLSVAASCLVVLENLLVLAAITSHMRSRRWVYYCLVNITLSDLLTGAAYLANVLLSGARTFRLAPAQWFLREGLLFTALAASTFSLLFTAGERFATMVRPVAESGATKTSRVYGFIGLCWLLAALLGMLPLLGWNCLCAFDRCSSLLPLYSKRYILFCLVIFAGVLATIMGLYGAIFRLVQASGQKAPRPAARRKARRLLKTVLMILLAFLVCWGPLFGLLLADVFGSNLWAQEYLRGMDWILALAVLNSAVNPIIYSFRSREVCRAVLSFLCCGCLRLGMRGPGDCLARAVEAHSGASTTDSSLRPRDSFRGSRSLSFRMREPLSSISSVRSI

[15] = target: Sphingosine 1-phosphate receptor 3 (Homo sapiens, UniProt Q99500); test: as §1, with “3 (S1P3)” for “5 (S1P5)”; assay type: functional
Sphingosine 1-phosphate receptor 3, sequence (Q99500 whole entry): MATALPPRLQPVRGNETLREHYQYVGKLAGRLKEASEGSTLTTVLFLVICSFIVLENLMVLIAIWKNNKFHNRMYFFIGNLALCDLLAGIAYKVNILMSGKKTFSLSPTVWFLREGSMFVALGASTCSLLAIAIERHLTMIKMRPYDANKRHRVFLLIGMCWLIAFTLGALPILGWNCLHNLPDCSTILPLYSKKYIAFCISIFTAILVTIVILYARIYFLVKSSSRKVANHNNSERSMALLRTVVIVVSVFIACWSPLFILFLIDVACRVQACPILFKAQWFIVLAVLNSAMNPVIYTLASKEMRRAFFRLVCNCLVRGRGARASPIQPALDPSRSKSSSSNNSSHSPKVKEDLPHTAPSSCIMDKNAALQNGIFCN

[16] = THP-1 cell cytotoxicity, dose response, cytotoxicity control for non-replicating M. tuberculosis project (AID 489025); assay type: functional
[17] = HepG2 cell cytotoxicity, dose response, cytotoxicity control for non-replicating M. tuberculosis project (AID 489018); assay type: functional; details: Mycobacterium tuberculosis
[18] = target: T2, Ubiquitin-conjugating enzyme E2 N (Homo sapiens, UniProt P61088); assay type: functional;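 also: Dose-response confirmation in a TR-FRET assay detecting UBC13-driven polyubiquitin chain formation, inhibition measured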
T2 sequence (P61088 whole entry): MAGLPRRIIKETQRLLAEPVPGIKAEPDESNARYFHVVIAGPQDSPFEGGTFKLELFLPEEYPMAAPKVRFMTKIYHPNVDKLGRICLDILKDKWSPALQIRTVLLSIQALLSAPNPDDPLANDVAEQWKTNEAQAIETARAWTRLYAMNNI

[19] = Vero E6 cell cytotoxicity, dose response, cytotoxicity control for non-replicating M. tuberculosis project, secondary assay (AID 492998); assay type: functional, VeroE6; details: Vero C1008
[20] = target: T3, Microphthalmia-associated transcription factor (Homo sapiens, UniProt O75030); test: TRPM1 promoter luciferase signal decrease, dose response, MITF inhibitor project, cell-based, SK-MEL-5, cherry-picked, set 3 (AID 493073); assay type: functional
T3 sequence (O75030 whole entry): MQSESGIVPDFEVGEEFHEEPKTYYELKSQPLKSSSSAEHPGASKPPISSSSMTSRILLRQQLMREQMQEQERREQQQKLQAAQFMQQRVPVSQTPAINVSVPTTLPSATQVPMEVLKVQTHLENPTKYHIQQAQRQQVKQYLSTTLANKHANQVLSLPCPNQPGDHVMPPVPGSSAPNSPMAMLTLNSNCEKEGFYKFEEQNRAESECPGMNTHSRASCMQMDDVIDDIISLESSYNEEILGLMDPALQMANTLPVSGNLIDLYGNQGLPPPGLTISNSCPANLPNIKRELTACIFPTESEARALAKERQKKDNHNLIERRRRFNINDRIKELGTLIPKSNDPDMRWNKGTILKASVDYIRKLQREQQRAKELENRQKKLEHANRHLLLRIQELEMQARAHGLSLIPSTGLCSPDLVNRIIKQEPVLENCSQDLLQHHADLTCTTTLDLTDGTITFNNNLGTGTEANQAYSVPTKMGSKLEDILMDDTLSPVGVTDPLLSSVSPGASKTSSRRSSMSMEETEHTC

[21] = cells; assay type: functional
[22] = system: A-375; test: A375 melanoma cell viability reduction, dose response, counter-screen for MITF modulator project, cherry-pick samples, set 2 (AID 540335); assay type: functional, cell-based; details: Homo sapiens
[23] = HeLa cell cytotoxicity, dose response, cytotoxicity control for MgcRacGAP inhibitor project (AID 624300); assay type: functional
[24] = target: T4, Rac GTPase-activating protein 1 (Homo sapiens, UniProt Q9H0H5); test: MgcRacGAP GTPase-activating activity inhibitors, confirmation, biochemical, ADP Hunter fluorescence, primary and confirmatory (AID 624330); assay type: functional
T4 sequence (Q9H0H5 whole entry): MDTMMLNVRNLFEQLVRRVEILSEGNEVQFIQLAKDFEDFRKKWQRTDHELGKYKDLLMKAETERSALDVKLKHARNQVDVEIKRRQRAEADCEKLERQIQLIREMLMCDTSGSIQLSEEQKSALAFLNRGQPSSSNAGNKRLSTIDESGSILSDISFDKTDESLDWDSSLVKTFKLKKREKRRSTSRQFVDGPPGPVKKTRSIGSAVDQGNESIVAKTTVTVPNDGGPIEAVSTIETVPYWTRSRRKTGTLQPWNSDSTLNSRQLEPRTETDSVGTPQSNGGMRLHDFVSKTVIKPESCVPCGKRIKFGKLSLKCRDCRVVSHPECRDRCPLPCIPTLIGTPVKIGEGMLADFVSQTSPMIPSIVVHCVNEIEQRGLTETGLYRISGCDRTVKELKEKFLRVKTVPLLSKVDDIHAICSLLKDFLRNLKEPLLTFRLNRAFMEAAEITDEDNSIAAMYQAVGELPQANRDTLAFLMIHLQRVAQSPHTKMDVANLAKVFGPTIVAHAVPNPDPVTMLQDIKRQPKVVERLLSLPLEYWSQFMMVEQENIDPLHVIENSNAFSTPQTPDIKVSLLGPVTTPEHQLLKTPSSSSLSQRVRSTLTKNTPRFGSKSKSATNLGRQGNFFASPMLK

[25] = A549 cell cytotoxicity, dose response, cytotoxicity control, plate reader, cherry-pick, antagonist series (AID 743412); assay type: functional, cell-based
[26] = HepG2 cell cytotoxicity, dose response, cytotoxicity control, plate reader, cherry-pick, antagonist series (AID 743416); assay type: functional, cell-based
[27] = LGR2 antagonists, dose response, cell-based, HEK293, CRE-luciferase reporter, cherry pick, set 2 (AID 743343); assay type: functional;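 also: transfected cells were stimulated with diluted bursicon conditioned medium after compound addition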
[28] = MC4R antagonists, dose response, counter-screen for LGR2 antagonist project, cell-based, plate reader, cherry pick (AID 743444); assay type: functional;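 also: transfected HEK 293 cells stimulated with alpha-MSH peptide; potency of inhibitors of the alpha-MSH evoked signal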
[29] = HEK293 cell cytotoxicity, dose response, cytotoxicity control, plate reader, cherry-picked samples (AID 743446); assay type: functional, cell-based
[30] = NIH-3T3 fibroblast cytotoxicity, dose response, cytotoxicity control, cell-based, fluorescence, Alamar Blue, secondary assay (AID 2327); assay type: functional;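 also: NIH-3T3 mouse fibroblasts cultured with fluconazole at 8 µg/mL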
[31] = C. albicans growth with fluconazole, confirmation, fluorescence, retest (AID 2467); assay type: functional, cell-based
[32] = target: Large T antigen (Simian virus 40, UniProt P03070); assay type: functional, Betapolyomavirus macacae;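 also: Confirmatory-stage PubChem screen for compounds that inhibit SV40 T antigen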
[33] = target: E3 ubiquitin-protein ligase XIAP (Homo sapiens, UniProt P98170); test: Counter Screen using XIAP-Bir3 for Chemical Antagonists of Bir1/2 domains of IAP-family anti-apoptotic proteins. [Related pubchem assays (depositor defined):AID1018, AID1449, AID1514, AID1638, AID1749, AID1750, AID488957, AID488963]
E3 ubiquitin-protein ligase XIAP, sequence (P98170 whole entry): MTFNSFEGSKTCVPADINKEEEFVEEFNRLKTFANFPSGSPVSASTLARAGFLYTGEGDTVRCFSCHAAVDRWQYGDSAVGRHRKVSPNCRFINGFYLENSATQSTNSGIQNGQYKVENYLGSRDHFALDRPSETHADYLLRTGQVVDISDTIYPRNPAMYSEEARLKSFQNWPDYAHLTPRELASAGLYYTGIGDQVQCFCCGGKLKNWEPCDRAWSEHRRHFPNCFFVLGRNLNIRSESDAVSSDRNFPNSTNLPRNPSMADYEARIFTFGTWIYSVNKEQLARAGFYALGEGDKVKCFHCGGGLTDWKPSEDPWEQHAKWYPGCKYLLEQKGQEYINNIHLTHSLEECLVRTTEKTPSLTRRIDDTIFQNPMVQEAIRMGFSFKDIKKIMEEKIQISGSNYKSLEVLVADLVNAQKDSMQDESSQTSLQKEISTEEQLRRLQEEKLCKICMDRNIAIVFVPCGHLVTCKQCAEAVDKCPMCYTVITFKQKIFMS

[34] = target: Beta-adrenergic receptor kinase 1 (Homo sapiens, UniProt P25098); test: aptamer displacement from bead-bound GRK2 – biochemical, cherry pick 1, bead flow cytometry, dose response (AID 504500)
[35] = target: Voltage-gated inwardly rectifying potassium channel KCNH2 (Homo sapiens, UniProt Q12809); details: Potency;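 also: confirmatory quantitative high-throughput screen measuring inhibition of hERG channel activity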
Voltage-gated inwardly rectifying potassium channel KCNH2, sequence (Q12809 whole entry): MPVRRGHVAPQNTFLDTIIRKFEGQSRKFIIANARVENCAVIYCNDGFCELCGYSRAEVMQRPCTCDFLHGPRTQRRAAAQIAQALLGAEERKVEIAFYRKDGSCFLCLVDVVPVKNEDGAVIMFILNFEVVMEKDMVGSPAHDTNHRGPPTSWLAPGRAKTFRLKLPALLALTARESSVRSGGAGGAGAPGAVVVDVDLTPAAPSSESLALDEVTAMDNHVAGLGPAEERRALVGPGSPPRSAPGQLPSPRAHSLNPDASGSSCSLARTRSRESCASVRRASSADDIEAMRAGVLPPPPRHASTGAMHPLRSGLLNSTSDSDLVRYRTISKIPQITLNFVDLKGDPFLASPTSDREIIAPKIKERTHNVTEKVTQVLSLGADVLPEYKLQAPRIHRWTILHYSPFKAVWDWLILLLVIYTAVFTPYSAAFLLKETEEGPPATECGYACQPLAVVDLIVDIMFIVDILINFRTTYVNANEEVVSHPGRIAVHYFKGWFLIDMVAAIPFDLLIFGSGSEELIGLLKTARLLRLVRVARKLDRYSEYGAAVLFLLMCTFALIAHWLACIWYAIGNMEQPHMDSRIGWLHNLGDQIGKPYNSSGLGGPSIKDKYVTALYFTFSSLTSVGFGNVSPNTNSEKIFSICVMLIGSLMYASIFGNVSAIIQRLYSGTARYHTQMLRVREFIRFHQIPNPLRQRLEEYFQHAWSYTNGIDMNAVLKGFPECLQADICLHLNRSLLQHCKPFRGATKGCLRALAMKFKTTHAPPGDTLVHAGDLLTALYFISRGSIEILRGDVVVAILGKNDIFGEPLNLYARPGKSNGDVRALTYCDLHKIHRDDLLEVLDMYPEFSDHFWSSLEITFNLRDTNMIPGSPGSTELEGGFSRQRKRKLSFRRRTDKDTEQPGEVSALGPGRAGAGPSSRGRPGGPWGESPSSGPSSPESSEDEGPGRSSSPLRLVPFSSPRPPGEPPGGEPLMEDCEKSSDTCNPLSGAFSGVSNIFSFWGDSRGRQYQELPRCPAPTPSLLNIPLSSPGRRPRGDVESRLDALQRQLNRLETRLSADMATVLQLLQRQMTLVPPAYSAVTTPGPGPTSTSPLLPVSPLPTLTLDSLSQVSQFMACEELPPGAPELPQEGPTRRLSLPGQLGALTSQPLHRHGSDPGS

[36] = target: Aryl hydrocarbon receptor (Homo sapiens, UniProt P35869); details: Potency;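 also: confirmatory quantitative high-throughput screen measuring activation of the AhR signaling pathway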

T1 sequence (P07550 whole entry): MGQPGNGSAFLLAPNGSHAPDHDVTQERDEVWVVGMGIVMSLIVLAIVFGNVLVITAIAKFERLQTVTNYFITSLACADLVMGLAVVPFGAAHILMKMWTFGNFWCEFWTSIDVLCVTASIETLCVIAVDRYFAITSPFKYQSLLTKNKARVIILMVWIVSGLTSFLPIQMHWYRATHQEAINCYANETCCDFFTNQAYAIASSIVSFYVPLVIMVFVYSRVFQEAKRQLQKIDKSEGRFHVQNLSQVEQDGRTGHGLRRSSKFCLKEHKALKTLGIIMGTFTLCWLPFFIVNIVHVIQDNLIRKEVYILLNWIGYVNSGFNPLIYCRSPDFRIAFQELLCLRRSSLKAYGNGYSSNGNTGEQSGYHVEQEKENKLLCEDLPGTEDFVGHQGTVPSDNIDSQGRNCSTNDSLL

## CSc1ccc(CN2CCC(Oc3ccc(C(=O)N4CCCC4)cc3)CC2)cc1
[1]
  EC50: 348 nM (active)
[2]
  EC50: 1.39 µM (active)

## O=C(CSc1nnc(COc2ccc(Cl)cc2)o1)N1c2ccccc2CCc2ccccc21
[3]
  EC50: 23.5 µM (active)
[4]
  EC50: 21.5 µM (active)
[5]
  EC50: 15.2 µM (active)
[6]
  EC50: 625 nM (active)
[7]
  EC50: < 6 µM (inconclusive)
[8]
  AC50: 10.2 µM (active)

## CN(C)c1ccc(-c2nccc(NCc3cccs3)n2)cc1
[9]
  AC50: 265 nM (active)

## Clc1ccc(OCCOc2ccc(Br)nc2Br)c(Cl)c1
[10]
  CC50: > 20 µM (inactive)
[11]
  EC50: > 50 µM (inactive)
[12]
  EC50: > 50 µM (inactive)
[13]
  EC50: > 50 µM (inactive)
[14]
  IC50: 830 nM (active)
[15]
  EC50: > 50 µM (inactive)

## CC(C)(c1ccccc1)c1ccc(OCC(O)CNC2CCN(Cc3ccccc3)CC2)cc1 (stereo not drawn)
[16]
  CC50: 6.44 µM (active)
[17]
  CC50: 6.65 µM (active)
[18]
  IC50: > 20 µM (inactive)
[19]
  CC50: 5.72 µM (active)
[20]
  AC50: 7.94 µM (active)
[21]
  IC50: 5.15 µM (active)
[22]
  AC50: 18.1 µM (active)
[23]
  CC50: 17.6 µM (active)
[24]
  IC50: 50.6 µM (active)
[25]
  AC50: 6.42 µM (active)
[26]
  AC50: 4.23 µM (active)
[27]
  AC50: 10.5 µM (active)
[28]
  AC50: 6.77 µM (active)
[29]
  AC50: 8.12 µM (active)

## O=S(=O)(O)c1cc(O)c2c(O)c(N=Nc3cc(Cl)ccc3O)c(S(=O)(=O)O)cc2c1
[30]
  EC50: > 150 µM (inactive)
[3]
  EC50: 13.1 µM (active)
[5]
  EC50: 14.8 µM (active)
[31]
  EC50: > 38 µM (not active)
[32]
  IC50: 13.4 µM (active)
[33]
  IC50: > 20 µM (inactive)
[34]
  EC50: 16.3 µM (inactive)

## COP(=S)(OC)Oc1ccc(SC)c(C)c1 [FENTHION]
[35]
  AC50: 22.4 µM (inconclusive)
[36]
  AC50: 50.1 µM (inconclusive)

Reference: ChEMBL document CHEMBL1201862, “PubChem BioAssay data set” (2004)
